Test results from US20240277860A1, “CAMPTOTHECIN PEPTIDE CONJUGATES” (priority 2019, published 2024).
Where two headings read alike, the source gives them in different places.

How the values were obtained:
Assay type in all cases: cell-based
[1] = test system: renal carcinoma cells (786-O); test: In vitro potency, CellTiter-Glo growth inhibition, 786-O; conditions: Homo sapiens, read-out: IC50 786-O
Procedure: (§1) In vitro potency was assessed on multiple cancer cell lines. All cell lines were authenticated by STR profiling at IDEXX Bioresearch and cultured for no more than 2 months after resuscitation. Cells cultured in log-phase growth were seeded for 24 hours in 96-well plates containing 150 μl RPMI 1640 supplemented with 20% FBS. Serial dilutions of antibody-drug conjugates in cell culture media were prepared at 4× working concentrations, and 50 μl of each dilution was added to the 96-well plates. Following addition of test articles, cells were incubated with test articles for 4 days at 37° C. After 96 hours, growth inhibition was assessed by CellTiter-Glo® (Promega, Madison, WI) and luminescence was measured on a plate reader. The IC50 value, determined in triplicate, is defined here as the concentration that results in 50% reduction in cell growth relative to untreated controls.
(§2) In the following Tables IC50 values for ADCs and campthothecin free drugs are given in ng/mL and […] concentrations, respectively. Cell viability was determined by CellTiter-Glo staining after 96 h exposure to ADC. ND=Not Determined. Ag1 is an antibody targeting a ubiquitous and readily internalizable antigen on cancer cells.

[2] = test system: Hodgkin's lymphoma cells (L540cy); test: In vitro potency, CellTiter-Glo growth inhibition, L540cy; conditions: 96 h, read-out: IC50 L540cy
Procedure: as §1, §2

[3] = test system: pancreatic cancer cells (BxPC3); test: In vitro potency, CellTiter-Glo growth inhibition, BxPC3; conditions: Homo sapiens, read-out: IC50 BxPC3
Procedure: as §1, §2

[4] = test system: multiple myeloma cells (MM.1R); test: In vitro potency, CellTiter-Glo growth inhibition, MM.1R; conditions: 96 h, read-out: IC50 MM.1R
Procedure: as §1, §2

[5] = test system: B-lymphocyte cancer cells (U266); test: In vitro potency, CellTiter-Glo growth inhibition, U-266; conditions: Homo sapiens, read-out: IC50 U-266
Procedure: as §1, §2

[6] = test system: MDR(−) acute promyelocytic leukemia cells (HL-60); test: In vitro potency, CellTiter-Glo growth inhibition, HL-60; conditions: Homo sapiens, read-out: IC50 HL-60
Procedure: as §1, §2

[7] = test system: acute myeloid leukemia cells (MOLM13); test: In vitro potency, CellTiter-Glo growth inhibition, MOLM-13; conditions: Homo sapiens, read-out: IC50 MOLM-13
Procedure: as §1, §2

[8] = test system: melanoma cells (SK-MEL-5); test: In vitro potency, CellTiter-Glo growth inhibition, SK-MEL-5; conditions: Homo sapiens, read-out: IC50 SK-MEL-5
Procedure: as §1, §2

[9] = test system: MDR(+) acute promyelocytic leukemia cells (HL60/RV); test: In vitro potency, CellTiter-Glo growth inhibition, HL60/RV; conditions: Homo sapiens, read-out: IC50 HL60/RV
Procedure: as §1, §2

[10] = test system: Burkitt's lymphoma cells (Ramos); test: In vitro potency, CellTiter-Glo growth inhibition, Ramos; conditions: Homo sapiens, 96 h, read-out: IC50 Ramos
Procedure: as §1, §2

[11] = test system: B-lymphocyte cancer cells (SU-DHL-4); test: In vitro potency, CellTiter-Glo growth inhibition, SU-DHL-4; conditions: Homo sapiens, read-out: IC50 SU-DHL-4
Procedure: as §1, §2

[12] = 786-0, camptothecin free drugs, 96 h, CellTiter-Glo
[13] = camptothecin free drugs, CellTiter-Glo
[14] = BXPC-3, camptothecin free drugs, 96 h, CellTiter-Glo
[15] = U-266, camptothecin free drugs, 96 h, CellTiter-Glo
[16] = HL-60, camptothecin free drugs, 96 h, CellTiter-Glo
[17] = MOLM-13, camptothecin free drugs, 96 h, CellTiter-Glo
[18] = SK-MEL-5, camptothecin free drugs, 96 h, CellTiter-Glo
[19] = SU-DHL-4, camptothecin free drugs, 96 h, CellTiter-Glo

Row | SMILES | IC50 [1, 12] [nM] | IC50 [2, 13] [nM] | IC50 [3, 14] [nM] | IC50 [4, 13] [nM] | IC50 [5, 15] [nM] | IC50 [6, 16] [nM] | IC50 [7, 17] [nM] | IC50 [8, 18] [nM] | IC50 [9, 16] [nM] | IC50 ([1]; 786-0, 96 h) [nM] | IC50 [2] [nM] | IC50 ([3]; BXPC-3, 96 h) [nM] | IC50 [4] [nM] | IC50 ([5]; U-266, 96 h) [nM] | IC50 ([6]; HL-60, 96 h) [nM] | IC50 ([7]; MOLM-13, 96 h) [nM] | IC50 ([8]; SK-MEL-5, 96 h) [nM] | IC50 ([9]; HL-60, 96 h) [nM] | IC50 [10] [nM] | IC50 ([11]; SU-DHL-4, 96 h) [nM] | also measured
1 | CC[C@@]1(O)C(=O)OCc2c1cc1n(c2=O)Cc2c-1nc1cc3c(cc1c2CNC(=O)[C@@H](N)Cc1ccccc1)OCO3 [Compound 3f] | > 1000 | 34 | 39 | 9 | 17 | 88 | 14 | 45 | > 1000 |  |  |  |  |  |  |  |  |  |  |  | IC50 [10, 13]: 4 nM; IC50 [11, 19]: 5 nM
2 | CC[C@@]1(O)C(=O)OCc2c1cc1n(c2=O)Cc2c-1nc1cc3c(cc1c2CNC(=O)[C@@H](N)Cc1c[nH]cn1)OCO3 [Compound 3i] | 22 | 321 | 331 | 147 | 452 | > 1000 | 996 | 414 | > 1000 |  |  |  |  |  |  |  |  |  |  |  | IC50 [10, 13]: 197 nM; IC50 [11, 19]: 255 nM
3 | CC[C@@]1(O)C(=O)OCc2c1cc1n(c2=O)Cc2c-1nc1cc3c(cc1c2CNC(=O)[C@@H](N)[C@@H](C)O)OCO3 [Compound 3l] |  |  |  |  |  |  |  |  |  | > 1000 | 27 | 64 | 22 | 57 | 298 | 45 | 109 | > 1000 | 8 | 16 | 
4 | CC[C@@]1(O)C(=O)OCc2c1cc1n(c2=O)Cc2c-1nc1cc3c(cc1c2CNC(=O)[C@@H](N)Cc1c[nH]c2ccccc12)OCO3 [Compound 3n] | 83 | 185 | 143 | 74 | 62 | 526 | 80 | 330 | > 1000 |  |  |  |  |  |  |  |  |  |  |  | IC50 [10, 13]: 18 nM; IC50 [11, 19]: 27 nM
5 | CC[C@@]1(O)C(=O)OCc2c1cc1n(c2=O)Cc2c-1nc1cc3c(cc1c2CNC(=O)[C@@H](N)CCCNC(=N)N)OCO3 [Compound 3g] | > 1000 | 4 | 18 | 6 | 15 | 191 | 57 | 34 | 51 |  |  |  |  |  |  |  |  |  |  |  | IC50 [10, 13]: 6 nM; IC50 [11, 19]: 6 nM
6 | CC[C@@]1(O)C(=O)OCc2c1cc1n(c2=O)Cc2c-1nc1cc3c(cc1c2CNC(=O)[C@@H](N)CCCCN)OCO3 [Compound 3h] |  |  |  |  |  |  |  |  |  | > 1000 | 7 | 42 | 13 | 36 | 552 | 97 | 60 | 128 | 12 | 14 | 
7 | CC[C@@]1(O)C(=O)OCc2c1cc1n(c2=O)Cc2c-1nc1cc3c(cc1c2CNC(=O)[C@@H](N)CCSC)OCO3 [Compound 3e] |  |  |  |  |  |  |  |  |  | > 1000 | 13 | 19 | 6 | 12 | 92 | 16 | 27 | 370 | 4 | 5 | 
8 | CC[C@@]1(O)C(=O)OCc2c1cc1n(c2=O)Cc2c-1nc1cc3c(cc1c2CNC(=O)[C@@H](N)CC(=O)O)OCO3 [Compound 3j] |  |  |  |  |  |  |  |  |  | 26 | 687 | 648 | 318 | 436 | > 1000 | 588 | 910 | > 1000 | 99 | 145 | 
9 | CC[C@@]1(O)C(=O)OCc2c1cc1n(c2=O)Cc2c-1nc1cc3c(cc1c2CNC(=O)[C@@H](N)C(C)C)OCO3 [Compound 3b] |  |  |  |  |  |  |  |  |  | > 1000 | 6 | 12 | 4 | 8 | 23 | 5 | 14 | 857 | 1 | 2 | 
10 | CC[C@@]1(O)C(=O)OCc2c1cc1n(c2=O)Cc2c-1nc1cc3c(cc1c2CNC(=O)C(C)(C)N)OCO3 [Compound 3d] |  |  |  |  |  |  |  |  |  | > 1000 | 4 | 10 | 3 | 4 | 25 | 5 | 14 | 840 | 1 | 3 | 
11 | CC[C@@]1(O)C(=O)OCc2c1cc1n(c2=O)Cc2c-1nc1cc3c(cc1c2CNC(=O)[C@H](C)N)OCO3 [Compound 3a] |  |  |  |  |  |  |  |  |  | 381 | 12 | 42 | 8 | 20 | 106 | 23 | 49 | 416 | 6 | 8 | 
12 | CC[C@@]1(O)C(=O)OCc2c1cc1n(c2=O)Cc2c-1nc1cc3c(cc1c2CNC(=O)[C@@H](N)CCC(=O)O)OCO3 [Compound 3k] | 21 | 415 | > 1000 | 576 | > 1000 | > 1000 | > 1000 | > 1000 | > 1000 |  |  |  |  |  |  |  |  |  |  |  | IC50 [10, 13]: 451 nM; IC50 [11, 19]: 667 nM
13 | CC[C@@]1(O)C(=O)OCc2c1cc1n(c2=O)Cc2c-1nc1cc3c(cc1c2CNC(=O)[C@@H](N)CC(C)C)OCO3 [Compound 3] |  |  |  |  |  |  |  |  |  | > 1000 | 5 | 9 | 4 | 6 | 30 | 8 | 15 | 194 | 2 | 3 | 
14 | CC[C@@]1(O)C(=O)OCc2c1cc1n(c2=O)Cc2c-1nc1cc3c(cc1c2CNC(=O)[C@@H](N)CCC(N)=O)OCO3 [Compound 3m] |  |  |  |  |  |  |  |  |  | 51 | 76 | 160 | 30 | 86 | 823 | 125 | 208 | > 1000 | 34 | 71 | 
